Measurements taken from US9944589B2, “Cycloproplyamine derivatives useful as inhibitors of histone demethylases KDM1A” (Istituto Europeo de Oncologia S.r.L., priority 2012, dated 2018).
Where a name gives a salt, the structure may show the parent alone.

The molecules below were run against T1, human recombinant KDM1A (LSD1)/CoRest (Homo sapiens, UniProt O60341) (assay: Assay of enzyme inhibition of KDM1A (LSD1), Amplex UltraRed/peroxidase coupled). Details: 15 min preincubation, 4.5 μM mono-methylated H3-K4 peptide, range classes, read-out: IC50 [μM], KDM1A inhibition assay.
T1 construct: made in house; host or cells: E. coli
Format: biochemical
Procedure: The experiments were performed using a mono-methylated H3-K4 peptide containing 21 amino acids (custom synthesis done by Thermo Scientific) as substrate and in a 50 mM TRIS, pH 8, 0.05 mg/ml BSA buffer.
The demethylase activity was estimated under aerobic conditions and at RT by measuring the release of H2O2 produced during the catalytic process by the Amplex® UltraRed detection system coupled with peroxidase assay. Briefly, a fixed amount of KDM1A/CoRest complex was incubated at RT for 15 minutes in the absence and/or the presence of various concentrations of inhibitor (e.g. from 0 to 100 μM, depending on the inhibitor strength) and of Amplex® UltraRed detection system coupled with peroxidase assay. The inhibitors were tested twice in duplicates at each concentration. […] The conversion of the Amplex® Ultra Red reagent to resorufin was monitored in continuous by fluorescence (excitation at 540 nm, emission at 590 nm) using a microplate reader (Infinite 200, Tecan). Arbitrary units were used to measure the level of H2O2 produced in the absence and/or in the presence of inhibition. The maximum demethylase activity of KDM1A/CoRest was obtained in the absence of inhibitors and corrected for background fluorescence in the absence of KDM1A/CoRest. The IC50 was calculated using GraphPad Software.
In the case of CC(C)[C@@]1(N)C[C@H]1c1ccccc1 (relative stereo) [Example A-7, trans-1-isopropyl-2-phenyl-cyclopropanamine hydrochloride], the IC50 is reported as 1 to 5 µM. Molecule CC[C@@]1(N)C[C@H]1c1ccc(F)cc1 (relative stereo) [Example A-16, trans-1-ethyl-2-(4-fluorophenyl)cyclopropanamine hydrochloride] has an IC50 of 1 to 5 µM. CC[C@@]1(N)C[C@H]1c1ccc(Cl)cc1 (relative stereo) [Example A-17, trans-1-ethyl-2-(4-chlorophenyl)cyclopropanamine; hydrochloride] gave an IC50 of 0.1 to 1 µM. CC[C@@]1(N)C[C@H]1c1cccc(C(F)(F)F)c1 (relative stereo) [Example A-18, trans-1-ethyl-2-[3-(trifluoromethyl)phenyl]cyclo-propanamine hydrochloride] gave an IC50 of 0.1 to 1 µM. With CC[C@@]1(N)C[C@H]1c1ccc(C(F)(F)F)cc1 (relative stereo) [Example A-19, trans-1-ethyl-2-[4-(trifluoromethyl)phenyl]cyclo-propanamine hydrochloride] the IC50 was 0.1 to 1 µM. With CC[C@@]1(N)C[C@H]1c1cccc(OC)c1 (relative stereo) [Example A-23, trans-1-ethyl-2-[3-methoxyphenyl]cyclopro-panamine hydrochloride] the IC50 was 0.1 to 1 µM. In the case of CC[C@@]1(N)C[C@H]1c1ccccc1F (relative stereo) [Example A-25, trans-1-ethyl-2-(2-fluorophenyl)cyclopropanamine hydrochloride], the IC50 is reported as 0.1 to 1 µM. CC[C@@]1(N)C[C@H]1c1ccccc1Cl (relative stereo) [Example A-26, trans-1-ethyl-2-(2-chlorophenyl)-cyclopropanamine hydrochloride] gave an IC50 of 0.1 to 1 µM. Work on CC[C@@]1(N)C[C@H]1c1ccccc1Br (relative stereo) [Example A-27, trans-1-ethyl-2-(2-bromophenyl)-cyclopropanamine hydrochloride] yielded an IC50 of 0.1 to 1 µM. CC[C@@]1(N)C[C@H]1c1ccc(NC(=O)c2cccc(-c3ccccc3)c2)cc1 (relative stereo) [Example A-35] was tested, and the IC50 was < 0.1 µM. In the case of CC[C@@]1(N)C[C@H]1c1ccc(NC(=O)Cc2ccccc2)cc1 (relative stereo) [Example A-39, N-[4-[(trans-2-amino-2-ethyl-cyclopropyl]phenyl]-2-phenyl-acetamide hydrochloride], the IC50 is reported as < 0.1 µM. With CC[C@@]1(N)C[C@H]1c1cccc(N=[N+]=[N-])c1 (relative stereo) [Example A-49, trans-2-(3-Azidophenyl)-1-ethyl-cyclopropanamine hydrochloride] the IC50 was < 0.1 µM. With N[C@@]1(CCc2ccccc2)C[C@@H]1c1cccc(Br)c1 (relative stereo) [Example A-51, trans 2-(3-bromophenyl)-1-phenethyl-cyclopropanamine hydrochloride] the IC50 was < 0.1 µM. N[C@]1(Cc2ccc3ccccc3c2)C[C@H]1c1ccc(F)cc1 (relative stereo) [Example A-54, trans-2-(4-fluorophenyl)-1-(2-naphthylmethyl)cyclo-propanamine hydrochloride] was tested, and the IC50 was 0.1 to 1 µM. N[C@]1(Cc2ccc3ccccc3c2)C[C@H]1c1ccc(Cl)cc1 (relative stereo) [Example A-55, trans-2-(4-chlorophenyl)-1-(2-naphthylmethyl)cyclo-propanamine hydrochloride] gave an IC50 of 0.1 to 1 µM. Work on N[C@]1(Cc2ccc3ccccc3c2)C[C@H]1c1cccc(Cl)c1 (relative stereo) [Example A-56, trans-2-(3-chlorophenyl)-1-(2-naphthylmethyl)cyclo-propanamine hydrochloride] yielded an IC50 of 0.1 to 1 µM. Work on N[C@]1(Cc2ccc3ccccc3c2)C[C@H]1c1cccc(Br)c1 (relative stereo) [Example A-57, trans-2-(3-bromophenyl)-1-(2-naphthylmethyl)cyclo-propanamine hydrochloride] yielded an IC50 of 0.1 to 1 µM. In the case of N[C@]1(CCc2ccccc2)C[C@H]1c1ccc(Cl)cc1 (relative stereo) [Example A-58, trans-2-(4-chlorophenyl)-1-phenethyl-cyclopropanamine hydrochloride], the IC50 is reported as < 0.1 µM. N[C@]1(CCc2ccccc2)C[C@H]1c1ccc(F)cc1 (relative stereo) [Example A-59, trans-2-(4-fluorophenyl)-1-phenethyl-cyclopropanamine hydrochloride] gave an IC50 of 0.1 to 1 µM. For N[C@]1(Cc2ccccc2)C[C@H]1c1ccc(F)cc1 (relative stereo) [Example A-60, trans-1-benzyl-2-(4-fluorophenyl)cyclo-propanamine], the IC50 was 0.1 to 1 µM. N[C@]1(Cc2ccccc2)C[C@H]1c1ccc(Cl)cc1 (relative stereo) [Example A-61, trans-1-benzyl-2-(4-chlorophenyl)cyclo-propanamine hydrochloride] was tested, and the IC50 was 0.1 to 1 µM. N[C@]1(CCc2ccccc2)C[C@H]1c1ccc(Br)cc1 (relative stereo) [Example A-62, trans 2-(4-bromophenyl)-1-phenethyl-cyclopropanamine 2,2,2-trifluoroacetic acid] showed an IC50 of 0.1 to 1 µM. With CC[C@@]1(N)C[C@H]1c1ccc(NC(=O)c2ccc(-c3ccccc3)c(NC3CCN(C)CC3)c2)cc1 (relative stereo) [Example A-66, N-[4-(trans-2-amino-2-ethyl-cyclopropyl)phenyl]-3-[(1-methyl-4-piperidyl)amino]-4-phenyl-benzamide dihydrochloride] the IC50 was < 0.1 µM. CC[C@@]1(N)C[C@H]1c1ccc(NC(=O)Cc2ccc([N+](=O)[O-])cc2)cc1 (relative stereo) [Example A-69, N-[4-trans-[2-amino-2-ethyl-cyclopropyl]phenyl]-2-(4-nitrophenyl) acetamide hydrochloride] was tested, and the IC50 was < 0.1 µM. CC[C@@]1(N)C[C@H]1c1cccc(NC(=O)c2ccccc2)c1 (relative stereo) [Example A-93, N-[3-[trans-2-amino-2-ethyl-cyclopropyl]phenyl] benzamide hydrochloride] showed an IC50 of 0.1 to 1 µM. With CC[C@@]1(N)C[C@H]1c1ccc(NC(=O)Cc2cccc3ccccc23)c(F)c1 (relative stereo) [Example A-94, N-[4-[trans-2-amino-2-ethyl-cyclopropyl]-2-fluoro-phenyl]-2-(1-naphthyl) acetamide hydrochloride] the IC50 was < 0.1 µM.

Same assay, conditions: IC50 [μM], KDM1A inhibition assay, 15 min preincubation, 4.5 μM mono-methylated H3-K4 peptide, range classes
CC[C@@]1(N)C[C@H]1c1cccc(F)c1 (relative stereo) [Example A-20, trans-1-ethyl-2-(3-fluorophenyl)cyclopropanamine hydrochloride] was tested, and the IC50 was < 0.1 µM. CC[C@@]1(N)C[C@H]1c1cccc(Cl)c1 (relative stereo) [Example A-21, trans-1-ethyl-2-(3-chlorophenyl)-cyclopropanamine hydrochloride] was tested, and the IC50 was < 0.1 µM. In the case of CC[C@@]1(N)C[C@H]1c1cccc(Br)c1 (relative stereo) [Example A-22, trans-1-ethyl-2-(3-bromophenyl)-cycloproanamine hydrochloride], the IC50 is reported as < 0.1 µM. In the case of CC[C@@]1(N)C[C@H]1c1ccc(Br)c(F)c1 (relative stereo) [Example A-50, trans-2-(4-bromo-3-fluoro-phenyl)-1-ethyl-cyclopropanamine hydrochloride], the IC50 is reported as < 0.1 µM.
